Blank lines part the entries; values can stand above or below the molecule they belong to.
Legend:
[1] = Formation of 1,5-cz-[M(Lig)] from Lig and M^III ions (metal dependent click-zip) (Charts 4, 5); assay type: physicochemical; details: MOPS/NaOH buffer pH 7.0; for conversion to 1,5-cz-[M(Lig)], Sc^III / conversion to 1,5-cz-[M(Lig)], Y^III: TD728, TD827 in 50% i-PrOH; for conversion to 1,5-cz-[M(Lig)], Y^III: TD714 sum of two diastereoisomers
[2] = Formation of 1,5-cz-[Ln(Lig)] from Lig and Ln^III ions (metal dependent click-zip), MOPS/NaOH buffer pH 7.0, analytical HPLC (Charts 1, 2); details: MOPS/NaOH buffer pH 7.0

conversion to 1,5-cz-[Ln(Lig)] with hydrolysed group in the side chain, Sc^III ([1]; 1 week at 80° C.): 60%
conversion to 1,5-cz-[Ln(Lig)] with hydrolysed group in the side chain, Y^III ([1]; 1 week at 80° C.): 87%
conversion to 1,5-cz-[M(Lig)], Sc^III ([1]; 1 week at 80° C.): 0%
conversion to 1,5-cz-[M(Lig)], Y^III ([1]; 1 week at 80° C.): 0%
conversion to 1,5-cz-[Ln(Lig)] with hydrolysed group in the side chain, Sc^III ([1]; 1 hour at 80° C.): 0%
conversion to 1,5-cz-[Ln(Lig)] with hydrolysed group in the side chain, Y^III ([1]; 1 hour at 80° C.): 1%
conversion to 1,5-cz-[M(Lig)], Sc^III ([1]; 1 hour at 80° C.): 0%
conversion to 1,5-cz-[M(Lig)], Y^III ([1]; 1 hour at 80° C.): 2%
conversion to 1,5-cz-[Ln(Lig)] with hydrolysed group in the side chain, Ce^III ([2]; after 1 week at 80° C.): 8%
conversion to 1,5-cz-[Ln(Lig)], Ce^III ([2]; after 1 week at 80° C.): 0%
conversion to 1,5-cz-[Ln(Lig)] with hydrolysed group in the side chain, Ce^III ([2]; after 1 hour at 80° C.): 0%
conversion to 1,5-cz-[Ln(Lig)], Ce^III ([2]; after 1 hour at 80° C.): 0%
conversion to 1,5-cz-[Ln(Lig)] with hydrolysed group in the side chain, Dy^III ([2]; after 1 week at 80° C.): 82%
conversion to 1,5-cz-[Ln(Lig)], Dy^III ([2]; after 1 week at 80° C.): 0%
conversion to 1,5-cz-[Ln(Lig)] with hydrolysed group in the side chain, Dy^III ([2]; after 1 hour at 80° C.): 0%
conversion to 1,5-cz-[Ln(Lig)], Dy^III ([2]; after 1 hour at 80° C.): 2%
conversion to 1,5-cz-[Ln(Lig)] with hydrolysed group in the side chain, Er^III ([2]; after 1 week at 80° C.): 92%
conversion to 1,5-cz-[Ln(Lig)], Er^III ([2]; after 1 week at 80° C.): 1%
conversion to 1,5-cz-[Ln(Lig)] with hydrolysed group in the side chain, Er^III ([2]; after 1 hour at 80° C.): 2%
conversion to 1,5-cz-[Ln(Lig)], Er^III ([2]; after 1 hour at 80° C.): 4%
conversion to 1,5-cz-[Ln(Lig)] with hydrolysed group in the side chain, Eu^III ([2]; after 1 week at 80° C.): 49%
conversion to 1,5-cz-[Ln(Lig)], Eu^III ([2]; after 1 week at 80° C.): 1%
conversion to 1,5-cz-[Ln(Lig)] with hydrolysed group in the side chain, Eu^III ([2]; after 1 hour at 80° C.): 0%
conversion to 1,5-cz-[Ln(Lig)], Eu^III ([2]; after 1 hour at 80° C.): 1%
conversion to 1,5-cz-[Ln(Lig)] with hydrolysed group in the side chain, Gd^III ([2]; after 1 week at 80° C.): 57%
conversion to 1,5-cz-[Ln(Lig)], Gd^III ([2]; after 1 week at 80° C.): 2%
conversion to 1,5-cz-[Ln(Lig)] with hydrolysed group in the side chain, Gd^III ([2]; after 1 hour at 80° C.): 0%
conversion to 1,5-cz-[Ln(Lig)], Gd^III ([2]; after 1 hour at 80° C.): 1%
conversion to 1,5-cz-[Ln(Lig)] with hydrolysed group in the side chain, Ho^III ([2]; after 1 week at 80° C.): 87%
conversion to 1,5-cz-[Ln(Lig)], Ho^III ([2]; after 1 week at 80° C.): 1%
conversion to 1,5-cz-[Ln(Lig)] with hydrolysed group in the side chain, Ho^III ([2]; after 1 hour at 80° C.): 1%
conversion to 1,5-cz-[Ln(Lig)], Ho^III ([2]; after 1 hour at 80° C.): 3%
conversion to 1,5-cz-[Ln(Lig)] with hydrolysed group in the side chain, La^III ([2]; after 1 week at 80° C.): 11%
conversion to 1,5-cz-[Ln(Lig)], La^III ([2]; after 1 week at 80° C.): 0%
conversion to 1,5-cz-[Ln(Lig)] with hydrolysed group in the side chain, La^III ([2]; after 1 hour at 80° C.): 0%
conversion to 1,5-cz-[Ln(Lig)], La^III ([2]; after 1 hour at 80° C.): 0%
conversion to 1,5-cz-[Ln(Lig)] with hydrolysed group in the side chain, Lu^III ([2]; after 1 week at 80° C.): 98%
conversion to 1,5-cz-[Ln(Lig)], Lu^III ([2]; after 1 week at 80° C.): 1%
conversion to 1,5-cz-[Ln(Lig)] with hydrolysed group in the side chain, Lu^III ([2]; after 1 hour at 80° C.): 9%
conversion to 1,5-cz-[Ln(Lig)], Lu^III ([2]; after 1 hour at 80° C.): 8%
conversion to 1,5-cz-[Ln(Lig)] with hydrolysed group in the side chain, Nd^III ([2]; after 1 week at 80° C.): 23%
conversion to 1,5-cz-[Ln(Lig)], Nd^III ([2]; after 1 week at 80° C.): 0%
conversion to 1,5-cz-[Ln(Lig)] with hydrolysed group in the side chain, Nd^III ([2]; after 1 hour at 80° C.): 0%
conversion to 1,5-cz-[Ln(Lig)], Nd^III ([2]; after 1 hour at 80° C.): 1%
conversion to 1,5-cz-[Ln(Lig)] with hydrolysed group in the side chain, Pr^III ([2]; after 1 week at 80° C.): 21%
conversion to 1,5-cz-[Ln(Lig)], Pr^III ([2]; after 1 week at 80° C.): 0%
conversion to 1,5-cz-[Ln(Lig)] with hydrolysed group in the side chain, Pr^III ([2]; after 1 hour at 80° C.): 0%
conversion to 1,5-cz-[Ln(Lig)], Pr^III ([2]; after 1 hour at 80° C.): 0%
conversion to 1,5-cz-[Ln(Lig)] with hydrolysed group in the side chain, Sm^III ([2]; after 1 week at 80° C.): 44%
conversion to 1,5-cz-[Ln(Lig)], Sm^III ([2]; after 1 week at 80° C.): 1%
conversion to 1,5-cz-[Ln(Lig)] with hydrolysed group in the side chain, Sm^III ([2]; after 1 hour at 80° C.): 0%
conversion to 1,5-cz-[Ln(Lig)], Sm^III ([2]; after 1 hour at 80° C.): 1%
conversion to 1,5-cz-[Ln(Lig)] with hydrolysed group in the side chain, Tb^III ([2]; after 1 week at 80° C.): 74%
conversion to 1,5-cz-[Ln(Lig)], Tb^III ([2]; after 1 week at 80° C.): 1%
conversion to 1,5-cz-[Ln(Lig)] with hydrolysed group in the side chain, Tb^III ([2]; after 1 hour at 80° C.): 0%
conversion to 1,5-cz-[Ln(Lig)], Tb^III ([2]; after 1 hour at 80° C.): 2%
conversion to 1,5-cz-[Ln(Lig)] with hydrolysed group in the side chain, Tm^III ([2]; after 1 week at 80° C.): 94%
conversion to 1,5-cz-[Ln(Lig)], Tm^III ([2]; after 1 week at 80° C.): 1%
conversion to 1,5-cz-[Ln(Lig)] with hydrolysed group in the side chain, Tm^III ([2]; after 1 hour at 80° C.): 3%
conversion to 1,5-cz-[Ln(Lig)], Tm^III ([2]; after 1 hour at 80° C.): 5%
conversion to 1,5-cz-[Ln(Lig)] with hydrolysed group in the side chain, Yb^III ([2]; after 1 week at 80° C.): 97%
conversion to 1,5-cz-[Ln(Lig)], Yb^III ([2]; after 1 week at 80° C.): 1%
conversion to 1,5-cz-[Ln(Lig)] with hydrolysed group in the side chain, Yb^III ([2]; after 1 hour at 80° C.): 5%
conversion to 1,5-cz-[Ln(Lig)], Yb^III ([2]; after 1 hour at 80° C.): 7%
Structure (SMILES): CC(C)(C#Cc1cccc(CN2CCN(CC(=O)O)CCN(Cc3cccc(CN=[N+]=[N-])n3)CCN(CC(=O)O)CC2)n1)NC(=O)OC(C)(C)C [TD1105]

conversion to 1,5-cz-[M(Lig)], Sc^III ([1]; 1 week at 80° C.): 23%
conversion to 1,5-cz-[M(Lig)], Y^III ([1]; 1 week at 80° C.): 95%
conversion to 1,5-cz-[M(Lig)], Sc^III ([1]; 1 hour at 80° C.): 2%
conversion to 1,5-cz-[M(Lig)], Y^III ([1]; 1 hour at 80° C.): 22%
conversion to 1,5-cz-[Ln(Lig)], Ce^III ([2]; after 1 week at 80° C.): 25%
conversion to 1,5-cz-[Ln(Lig)], Ce^III ([2]; after 1 hour at 80° C.): 1%
conversion to 1,5-cz-[Ln(Lig)], Dy^III ([2]; after 1 week at 80° C.): 94%
conversion to 1,5-cz-[Ln(Lig)], Dy^III ([2]; after 1 hour at 80° C.): 16%
conversion to 1,5-cz-[Ln(Lig)], Er^III ([2]; after 1 week at 80° C.): 95%
conversion to 1,5-cz-[Ln(Lig)], Er^III ([2]; after 1 hour at 80° C.): 37%
conversion to 1,5-cz-[Ln(Lig)], Eu^III ([2]; after 1 week at 80° C.): 92%
conversion to 1,5-cz-[Ln(Lig)], Eu^III ([2]; after 1 hour at 80° C.): 4%
conversion to 1,5-cz-[Ln(Lig)], Gd^III ([2]; after 1 week at 80° C.): 91%
conversion to 1,5-cz-[Ln(Lig)], Gd^III ([2]; after 1 hour at 80° C.): 5%
conversion to 1,5-cz-[Ln(Lig)], Ho^III ([2]; after 1 week at 80° C.): 95%
conversion to 1,5-cz-[Ln(Lig)], Ho^III ([2]; after 1 hour at 80° C.): 24%
conversion to 1,5-cz-[Ln(Lig)], La^III ([2]; after 1 week at 80° C.): 50%
conversion to 1,5-cz-[Ln(Lig)], La^III ([2]; after 1 hour at 80° C.): 1%
conversion to 1,5-cz-[Ln(Lig)], Lu^III ([2]; after 1 week at 80° C.): 95%
conversion to 1,5-cz-[Ln(Lig)], Lu^III ([2]; after 1 hour at 80° C.): 71%
conversion to 1,5-cz-[Ln(Lig)], Nd^III ([2]; after 1 week at 80° C.): 81%
conversion to 1,5-cz-[Ln(Lig)], Nd^III ([2]; after 1 hour at 80° C.): 2%
conversion to 1,5-cz-[Ln(Lig)], Pr^III ([2]; after 1 week at 80° C.): 64%
conversion to 1,5-cz-[Ln(Lig)], Pr^III ([2]; after 1 hour at 80° C.): 1%
conversion to 1,5-cz-[Ln(Lig)], Sm^III ([2]; after 1 week at 80° C.): 92%
conversion to 1,5-cz-[Ln(Lig)], Sm^III ([2]; after 1 hour at 80° C.): 3%
conversion to 1,5-cz-[Ln(Lig)], Tb^III ([2]; after 1 week at 80° C.): 95%
conversion to 1,5-cz-[Ln(Lig)], Tb^III ([2]; after 1 hour at 80° C.): 11%
conversion to 1,5-cz-[Ln(Lig)], Tm^III ([2]; after 1 week at 80° C.): 95%
conversion to 1,5-cz-[Ln(Lig)], Tm^III ([2]; after 1 hour at 80° C.): 52%
conversion to 1,5-cz-[Ln(Lig)], Yb^III ([2]; after 1 week at 80° C.): 95%
conversion to 1,5-cz-[Ln(Lig)], Yb^III ([2]; after 1 hour at 80° C.): 64%
Structure (SMILES): C#Cc1cccc(CN2CCN(CC(=O)O)CCN(Cc3cccc(CN=[N+]=[N-])n3)CCN(CC(=O)O)CC2)n1 [TD556]

— patent US20250147039A1, “Compounds for complexation of rare earth elements and/or s-, p-, d- block metals, their coordination compounds, peptide conjugates, method of their preparation and use thereof” (USTAV ORGANICKE CHEMIE A BIOCHEMIE AV CR V.V.I., priority 2021, published 2025)
